These results are taken from patent US10871487B2, “FRET-based glucose-detection molecules” (priority 2016, dated 2020).

For test [1], the target named is T1, FRET-based glucose-detection molecule D263, glucose-binding region derived from E. coli mg1B (galactose binding protein), 16 = V (Escherichia coli, UniProt P0AEE5, F39V).
T1 construct: made in E. coli, purified
Nature of the test: Kd of residue 16 variant at room temperature (D263). The source says:
(§1) Reference is also made to FIG. 2, which is a graph that illustrates, in a generalized manner, FRET behavior of molecule 20 (and of the molecules that it represents), in accordance with some applications of the invention. Three important features of molecules suitable for FRET-based glucose detection are: • (1) High contrast. That is, a large difference between the FRET:F ratio in the disassociated state and the FRET:F ratio in the associated state (referred to herein as “delta ratio” (“dR”)). In FIG. 2, this is represented as the difference between the highest FRET:F ratio and the lowest FRET:F ratio on the curve. • (2) High sensitivity at physiologically-relevant glucose concentrations when at physiologically-relevant temperatures. […]
(§2) The measurements were performed on proteins that were extracted from E. coli (in which they were produced) and purified in 50 mM Tris (pH 7.6, 1 mM CaCl_2, 100 mM NaCl_2). Measurements were performed using an Infinite (R) 200 plate reader or on a fluoroscopic microscope. FRET-based emission was measured by applying excitation at 475 nm and detecting emission at 640-800 nm. Direct fluorescence of the acceptor fluorophore was measured by applying excitation at 575 nm and detecting emission at 640-800 nm. Curves were generated from the measured points (typically 10) by a non-linear interpolation, and Kd and dR were extracted. […]

For test [2], the target named is T2, FRET-based glucose-detection molecule D279, SEQ ID No. 4, glucose-binding region derived from E. coli mg1B (galactose binding protein), residue 16 = Q (Escherichia coli, UniProt P0AEE5, DELINS299-299[…]/F39Q).
T2 construct: red acceptor fluorophore at N-terminus; FRET sensor D279; made in E. coli, purified
T2 sequence (P0AEE5 other isoform, or with tags, fused parts or gaps with the stated changes): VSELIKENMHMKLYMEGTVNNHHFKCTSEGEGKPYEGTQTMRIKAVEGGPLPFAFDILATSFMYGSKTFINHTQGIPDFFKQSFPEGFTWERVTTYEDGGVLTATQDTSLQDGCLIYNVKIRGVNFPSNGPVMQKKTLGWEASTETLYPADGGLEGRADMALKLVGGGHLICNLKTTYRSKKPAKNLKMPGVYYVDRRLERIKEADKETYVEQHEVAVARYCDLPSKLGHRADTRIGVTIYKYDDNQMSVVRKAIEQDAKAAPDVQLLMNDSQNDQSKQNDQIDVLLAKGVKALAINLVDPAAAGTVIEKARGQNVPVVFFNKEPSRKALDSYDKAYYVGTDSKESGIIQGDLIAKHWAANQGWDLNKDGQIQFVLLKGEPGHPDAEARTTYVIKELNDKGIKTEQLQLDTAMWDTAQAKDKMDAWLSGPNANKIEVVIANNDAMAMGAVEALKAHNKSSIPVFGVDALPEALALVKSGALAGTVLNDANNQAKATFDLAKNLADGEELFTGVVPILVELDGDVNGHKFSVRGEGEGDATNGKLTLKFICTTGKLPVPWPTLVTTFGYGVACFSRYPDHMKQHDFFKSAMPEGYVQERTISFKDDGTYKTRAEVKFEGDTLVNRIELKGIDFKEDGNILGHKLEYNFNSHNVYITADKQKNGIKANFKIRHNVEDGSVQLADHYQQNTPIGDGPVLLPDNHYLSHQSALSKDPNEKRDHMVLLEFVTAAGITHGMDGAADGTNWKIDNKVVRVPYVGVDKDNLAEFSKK
Description: FRET:F ratio at different glucose concentrations, Kd extracted from curve (D279). Particulars: FIG. 5B.
Source text: (§3) Reference is also made to FIG. 2, which is a graph that illustrates, in a generalized manner, FRET behavior of molecule 20 (and of the molecules that it represents), in accordance with some applications of the invention. Three important features of molecules suitable for FRET-based glucose detection are: • (1) High contrast. That is, a large difference between the FRET:F ratio in the disassociated state and the FRET:F ratio in the associated state (referred to herein as “delta ratio” (“dR”)). […]
(§4) Reference is now made to FIG. 4, which is a set of graphs which show, for some of the molecules described hereinabove, the FRET:F ratio (y axis) at different glucose concentrations, measured at 35 degrees C.
as §2

Test [3] deals with T3, FRET-based glucose-detection molecule D277, SEQ ID No. 2, glucose-binding region derived from E. coli mg1B (galactose binding protein), residue 16 = Q (Escherichia coli, UniProt P0AEE5, DELINS298-299[…]/F39Q).
T3 construct: red acceptor fluorophore at N-terminus with linker; FRET sensor D277; made in E. coli, purified
T3 sequence (P0AEE5 other isoform, or with tags, fused parts or gaps with the stated changes): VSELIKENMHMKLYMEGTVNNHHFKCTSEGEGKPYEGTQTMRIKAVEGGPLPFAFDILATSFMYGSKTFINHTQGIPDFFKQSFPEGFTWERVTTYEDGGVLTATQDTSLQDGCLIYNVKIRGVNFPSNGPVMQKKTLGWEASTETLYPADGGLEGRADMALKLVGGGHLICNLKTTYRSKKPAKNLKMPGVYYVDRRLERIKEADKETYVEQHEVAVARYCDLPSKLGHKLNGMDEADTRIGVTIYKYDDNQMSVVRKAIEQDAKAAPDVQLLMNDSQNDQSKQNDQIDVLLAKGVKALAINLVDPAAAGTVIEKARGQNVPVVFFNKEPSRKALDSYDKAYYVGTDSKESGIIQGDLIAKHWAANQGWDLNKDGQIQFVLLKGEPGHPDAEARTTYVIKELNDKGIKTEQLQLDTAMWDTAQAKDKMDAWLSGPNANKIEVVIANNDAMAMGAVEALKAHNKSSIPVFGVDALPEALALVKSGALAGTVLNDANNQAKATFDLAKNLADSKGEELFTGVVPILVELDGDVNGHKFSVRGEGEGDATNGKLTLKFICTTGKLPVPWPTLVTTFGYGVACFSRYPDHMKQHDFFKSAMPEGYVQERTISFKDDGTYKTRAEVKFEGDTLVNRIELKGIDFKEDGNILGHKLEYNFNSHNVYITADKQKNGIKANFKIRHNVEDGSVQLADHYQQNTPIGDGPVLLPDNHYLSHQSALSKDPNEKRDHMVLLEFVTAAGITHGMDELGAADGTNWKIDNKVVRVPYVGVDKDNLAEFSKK
Nature of the test: FRET:F ratio at different glucose concentrations, Kd extracted from curve (D277). Particulars: FIG. 5B.
Source text: as §3, §4, §2

Test [4] addresses T4, FRET-based glucose-detection molecule D267, glucose-binding region derived from E. coli mg1B (galactose binding protein), 16 = N (Escherichia coli, UniProt P0AEE5, F39N).
T4 construct: made in E. coli, purified
Description: Kd of residue 16 variant at room temperature (D267).
Source text: as §1, §2

The target in test [5] is T5, FRET-based glucose-detection molecule D198, glucose-binding region derived from E. coli mg1B (galactose binding protein), 16 = A (Escherichia coli, UniProt P0AEE5, F39A).
T5 construct: made in E. coli, purified
T5 sequence (P0AEE5 24-332 F39A limits assumed): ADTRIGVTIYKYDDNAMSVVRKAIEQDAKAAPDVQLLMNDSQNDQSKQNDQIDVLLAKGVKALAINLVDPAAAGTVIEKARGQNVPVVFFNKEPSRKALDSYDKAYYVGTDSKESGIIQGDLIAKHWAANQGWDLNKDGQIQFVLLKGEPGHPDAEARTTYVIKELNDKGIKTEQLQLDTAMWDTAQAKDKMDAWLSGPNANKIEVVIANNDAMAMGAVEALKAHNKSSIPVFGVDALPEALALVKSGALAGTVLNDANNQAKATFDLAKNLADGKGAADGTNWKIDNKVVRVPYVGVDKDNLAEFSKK
Nature of the test: Kd of residue 16 variant at room temperature (D198).
Source text: as §1, §2

The target of test [6] is T6, FRET-based glucose-detection molecule D241, glucose-binding region derived from E. coli mg1B (galactose binding protein), 16 = Q (Escherichia coli, UniProt P0AEE5, F39Q).
T6 construct: made in E. coli, purified
T6 sequence (P0AEE5 24-332 F39Q limits assumed): as the sequence (P0AEE5 24-332 F39A limits assumed) above, with A16Q counted along it
Nature of the test: Kd of residue 16 variant at room temperature (D241).
Source text: as §1, §2

Test [7] addresses T7, FRET-based glucose-detection molecule D278, SEQ ID No. 3, glucose-binding region derived from E. coli mg1B (galactose binding protein), residue 16 = Q (Escherichia coli, UniProt P0AEE5, DELINS298-299[…]/F39Q).
T7 construct: red acceptor fluorophore at N-terminus with linker; FRET sensor D278; made in E. coli, purified
Description: FRET:F ratio at different glucose concentrations, Kd extracted from curve (D278). Particulars: FIG. 5B.
Source text: as §3, §4, §2

Test [8] has as its target T8, FRET-based glucose-detection molecule D274, SEQ ID No. 1, glucose-binding region derived from E. coli mg1B (galactose binding protein), residue 16 = Q (Escherichia coli, UniProt P0AEE5, DELINS298-299[…]/F39Q).
T8 construct: red acceptor fluorophore at N-terminus; FRET sensor D274; made in E. coli, purified
Nature of the test: FRET:F ratio at different glucose concentrations, Kd extracted from curve (D274). Particulars: FIG. 5B.
Source text: as §3, §4, §2

A word on the Kd: it is the concentration at which binding is half-saturated.

T1 sequence (P0AEE5 24-332 F39V limits assumed): as the sequence (P0AEE5 24-332 F39A limits assumed) above, with A16V counted along it
T4 sequence (P0AEE5 24-332 F39N limits assumed): as the sequence (P0AEE5 24-332 F39A limits assumed) above, with A16N counted along it
T7 sequence (P0AEE5 other isoform, or with tags, fused parts or gaps with the stated changes): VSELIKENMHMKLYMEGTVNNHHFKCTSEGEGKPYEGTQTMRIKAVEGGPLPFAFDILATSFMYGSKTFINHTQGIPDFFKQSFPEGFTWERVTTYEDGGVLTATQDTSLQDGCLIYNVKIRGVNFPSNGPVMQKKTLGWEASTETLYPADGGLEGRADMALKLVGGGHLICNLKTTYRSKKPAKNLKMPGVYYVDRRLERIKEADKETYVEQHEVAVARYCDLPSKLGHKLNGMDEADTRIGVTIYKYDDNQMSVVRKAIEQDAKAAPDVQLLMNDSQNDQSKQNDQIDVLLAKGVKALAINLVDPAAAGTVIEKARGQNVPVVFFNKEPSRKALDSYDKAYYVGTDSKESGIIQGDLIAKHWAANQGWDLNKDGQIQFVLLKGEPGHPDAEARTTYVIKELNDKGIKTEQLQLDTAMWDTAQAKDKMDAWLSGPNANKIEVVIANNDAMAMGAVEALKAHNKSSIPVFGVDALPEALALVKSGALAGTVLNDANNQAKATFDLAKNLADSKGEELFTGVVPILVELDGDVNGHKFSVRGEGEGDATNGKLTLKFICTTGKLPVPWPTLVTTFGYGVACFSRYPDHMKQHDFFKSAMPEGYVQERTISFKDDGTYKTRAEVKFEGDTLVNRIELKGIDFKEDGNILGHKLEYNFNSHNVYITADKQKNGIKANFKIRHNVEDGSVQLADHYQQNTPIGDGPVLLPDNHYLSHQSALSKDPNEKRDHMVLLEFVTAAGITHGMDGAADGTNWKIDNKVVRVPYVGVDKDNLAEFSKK
T8 sequence (P0AEE5 other isoform, or with tags, fused parts or gaps with the stated changes): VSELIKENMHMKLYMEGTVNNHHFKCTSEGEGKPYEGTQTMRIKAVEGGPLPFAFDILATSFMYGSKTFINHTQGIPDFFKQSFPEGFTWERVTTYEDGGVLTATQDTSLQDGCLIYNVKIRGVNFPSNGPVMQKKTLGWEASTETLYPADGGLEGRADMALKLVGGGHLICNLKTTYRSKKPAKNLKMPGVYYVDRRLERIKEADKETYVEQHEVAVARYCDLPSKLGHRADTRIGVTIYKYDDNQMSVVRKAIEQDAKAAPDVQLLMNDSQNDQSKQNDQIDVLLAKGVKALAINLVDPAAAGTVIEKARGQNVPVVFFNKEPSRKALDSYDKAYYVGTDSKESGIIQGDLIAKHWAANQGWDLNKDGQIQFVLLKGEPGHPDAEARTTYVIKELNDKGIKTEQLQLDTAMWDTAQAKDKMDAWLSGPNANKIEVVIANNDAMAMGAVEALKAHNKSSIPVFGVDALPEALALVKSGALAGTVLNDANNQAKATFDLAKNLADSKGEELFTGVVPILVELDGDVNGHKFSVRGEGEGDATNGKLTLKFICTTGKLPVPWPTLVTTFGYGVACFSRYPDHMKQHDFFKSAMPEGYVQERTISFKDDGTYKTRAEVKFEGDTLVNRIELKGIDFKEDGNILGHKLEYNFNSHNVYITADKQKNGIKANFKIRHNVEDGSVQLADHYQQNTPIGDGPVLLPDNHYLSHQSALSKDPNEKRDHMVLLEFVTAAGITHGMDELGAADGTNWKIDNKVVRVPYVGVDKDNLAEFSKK

`OC[C@H]1OC(O)[C@H](O)[C@@H](O)[C@@H]1O` (some centres unmarked) [glucose]: the Kd in test [1] was 7.9 mM; in test [4], 9.4 mM; in test [5], 3.2 mM; in test [6], 0.3 mM. The “Kd at different temperatures” value was “Kd increased with temperature for all four molecules; the change was greatest for D279” in test [2]; “Kd increased with temperature for all four molecules” in test [3]; “Kd increased with temperature for all four molecules” in test [7]; “Kd increased with temperature for all four molecules; the change was greatest for D279, and smallest for D274” in test [8].
